Measured values taken from PubChem BioAssay AID1259407 (Chemical Carcinogenesis Research Information System (CCRIS), 2018).
Calls of active or inactive are those of the source. How the calls were made is not given here.

Tested on: CCRIS mutagenicity, Ames/micronucleus/aberration tests
Assay: CCRIS mutagenicity studies
[1] = Test System: AMES SALMONELLA TYPHIMURIUM, Strain/Indicator: TA98, Metabolic Activation: NONE, Method: STANDARD PLATE
[2] = Test System: AMES SALMONELLA TYPHIMURIUM, Strain/Indicator: TA100, Metabolic Activation: NONE, Method: STANDARD PLATE
[3] = Test System: AMES SALMONELLA TYPHIMURIUM, Strain/Indicator: TA1535, Metabolic Activation: NONE, Method: STANDARD PLATE
[4] = Test System: AMES SALMONELLA TYPHIMURIUM, Strain/Indicator: TA1537, Metabolic Activation: NONE, Method: STANDARD PLATE
[5] = Test System: AMES SALMONELLA TYPHIMURIUM, Strain/Indicator: TA1538, Metabolic Activation: NONE, Method: STANDARD PLATE

Q: Which mutagenic call [1] does the source give for `CCCCC(CC)COC(=O)c1ccc(C(=O)OCC(CC)CCCC)cc1` (stereo unspecified) here?
A: Its mutagenic call is “inactive; negative”.

Q: What about the mutagenic call (Test System: AMES SALMONELLA TYPHIMURIUM, Strain/Indicator: TA98, Metabolic Activation: RAT, LIVER, S-9, Method: STANDARD PLATE) of the same compound?
A: The mutagenic call was “inactive; negative”.

Q: What about the mutagenic call [2] of the same compound?
A: Its mutagenic call is “inactive; negative”.

Q: And the mutagenic call (Test System: AMES SALMONELLA TYPHIMURIUM, Strain/Indicator: TA100, Metabolic Activation: RAT, LIVER, S-9, Method: STANDARD PLATE)?
A: Its mutagenic call is “inactive; negative”.

Q: What about the mutagenic call [3] of the same compound?
A: The mutagenic call was “inactive; negative”.

Q: And the mutagenic call (Test System: AMES SALMONELLA TYPHIMURIUM, Strain/Indicator: TA1535, Metabolic Activation: RAT, LIVER, S-9, Method: STANDARD PLATE)?
A: The mutagenic call was “inactive; negative”.

Q: And the mutagenic call [4]?
A: The mutagenic call was “inactive; negative”.

Q: And the mutagenic call (Test System: AMES SALMONELLA TYPHIMURIUM, Strain/Indicator: TA1537, Metabolic Activation: RAT, LIVER, S-9, Method: STANDARD PLATE)?
A: Its mutagenic call is “inactive; negative”.

Q: What about the mutagenic call [5] of the same compound?
A: The mutagenic call was “inactive; negative”.

Q: And the mutagenic call (Test System: AMES SALMONELLA TYPHIMURIUM, Strain/Indicator: TA1538, Metabolic Activation: RAT, LIVER, S-9, Method: STANDARD PLATE)?
A: Its mutagenic call is “inactive; negative”.

Q: And the mutagenic call (Test System: CHINESE HAMSTER OVARY, Strain/Indicator: CHO-K1-BH4 (HGPRT)/6-THIOGUANINE, Metabolic Activation: NONE)?
A: Its mutagenic call is “inactive; negative”.

Q: What about the mutagenic call (Test System: CHINESE HAMSTER OVARY, Strain/Indicator: CHO-K1-BH4 (HGPRT)/6-THIOGUANINE, Metabolic Activation: RAT, LIVER, S-9) of the same compound?
A: Its mutagenic call is “inactive; negative”.

Q: What does the source list for `O=P(O)(O)Oc1c(Br)cc(Br)cc1-c1cc(Br)cc(Br)c1O`?
A: mutagenic call [1]: inactive; negative; mutagenic call (Test System: AMES SALMONELLA TYPHIMURIUM, Strain/Indicator: TA98, Metabolic Activation: RAT, LIVER, S-9, KANECHLOR 400, Method: STANDARD PLATE): inactive; negative; mutagenic call [2]: inactive; negative; mutagenic call (Test System: AMES SALMONELLA TYPHIMURIUM, Strain/Indicator: TA100, Metabolic Activation: RAT, LIVER, S-9, KANECHLOR 400, Method: STANDARD PLATE): inactive; negative; mutagenic call [3]: inactive; negative; mutagenic call (Test System: AMES SALMONELLA TYPHIMURIUM, Strain/Indicator: TA1535, Metabolic Activation: RAT, LIVER, S-9, KANECHLOR 400, Method: STANDARD PLATE): inactive; negative; mutagenic call [4]: inactive; negative; mutagenic call (Test System: AMES SALMONELLA TYPHIMURIUM, Strain/Indicator: TA1537, Metabolic Activation: RAT, LIVER, S-9, KANECHLOR 400, Method: STANDARD PLATE): inactive; negative; mutagenic call [5]: inactive; negative; mutagenic call (Test System: AMES SALMONELLA TYPHIMURIUM, Strain/Indicator: TA1538, Metabolic Activation: RAT, LIVER, S-9, KANECHLOR 400, Method: STANDARD PLATE): inactive; negative

Q: For `c1ccc2c(c1)-c1cc3c(cc1C1NC21)-c1ccccc1C1NC31` (stereo unspecified), which mutagenic call [2] is on record?
A: The mutagenic call was “active; positive”.

Q: What does the source list for `CC(N)Cc1ccccc1` (stereo unspecified)?
A: mutagenic call (Test System: AMES SALMONELLA TYPHIMURIUM, Strain/Indicator: TA98, Metabolic Activation: HAMSTER, LIVER, S-9, AROCLOR 1254 (4%, 10% OR 20%), Method: PREINCUBATION): inactive; negative; mutagenic call (Test System: AMES SALMONELLA TYPHIMURIUM, Strain/Indicator: TA98, Metabolic Activation: HAMSTER, LIVER, S-9, AROCLOR 1254 (4, 10 OR 20%), Method: PREINCUBATION): inactive; negative; mutagenic call (Test System: AMES SALMONELLA TYPHIMURIUM, Strain/Indicator: TA98, Metabolic Activation: NONE, Method: PREINCUBATION): inactive; negative; mutagenic call (Test System: AMES SALMONELLA TYPHIMURIUM, Strain/Indicator: TA98, Metabolic Activation: RAT, LIVER, S-9, AROCLOR 1254 (10%), Method: PREINCUBATION): inactive; negative; mutagenic call (Test System: AMES SALMONELLA TYPHIMURIUM, Strain/Indicator: TA100, Metabolic Activation: HAMSTER, LIVER, S-9, AROCLOR 1254 (10%), Method: PREINCUBATION): inactive; negative; mutagenic call (Test System: AMES SALMONELLA TYPHIMURIUM, Strain/Indicator: TA100, Metabolic Activation: NONE, Method: PREINCUBATION): inactive; negative; mutagenic call (Test System: AMES SALMONELLA TYPHIMURIUM, Strain/Indicator: TA100, Metabolic Activation: RAT, LIVER, S-9, AROCLOR 1254 (10%), Method: PREINCUBATION): inactive; negative; mutagenic call (Test System: AMES SALMONELLA TYPHIMURIUM, Strain/Indicator: TA1535, Metabolic Activation: HAMSTER, LIVER, S-9, AROCLOR 1254 (10%), Method: PREINCUBATION): inactive; negative; mutagenic call (Test System: AMES SALMONELLA TYPHIMURIUM, Strain/Indicator: TA1535, Metabolic Activation: NONE, Method: PREINCUBATION): inactive; negative; mutagenic call (Test System: AMES SALMONELLA TYPHIMURIUM, Strain/Indicator: TA1535, Metabolic Activation: RAT, LIVER, S-9, AROCLOR 1254 (10%), Method: PREINCUBATION): inactive; negative; mutagenic call (Test System: AMES SALMONELLA TYPHIMURIUM, Strain/Indicator: TA1537, Metabolic Activation: HAMSTER, LIVER, S-9, AROCLOR 1254 (10%), Method: PREINCUBATION): inactive; negative; mutagenic call (Test System: AMES SALMONELLA TYPHIMURIUM, Strain/Indicator: TA1537, Metabolic Activation: NONE, Method: PREINCUBATION): inactive; negative; mutagenic call (Test System: AMES SALMONELLA TYPHIMURIUM, Strain/Indicator: TA1537, Metabolic Activation: RAT, LIVER, S-9, AROCLOR 1254 (10%), Method: PREINCUBATION): inactive; negative
